The values that follow come from paper PMC7785352, “Antioxidant and α-Glucosidase Inhibitory Activities Guided Isolation and Identification of Components from Mango Seed Kernel” (Oxidative Medicine and Cellular Longevity, 2020).

The nature of test [1]: DPPH radical scavenging activity assay. As to conditions: mean ± SD; for IC50: isolated compounds, test concentrations 15.625 to 500 μM. On the procedure:
The DPPH radical scavenging activity assay was determined according to the reported method with minor modifications. Briefly, extract and four fractions were dissolved in methyl alcohol at concentrations ranging from 62.5 to 1000 μg/mL, which were prepared to mix with a methyl alcohol solution of DPPH (0.2 mM, 100 μL) on a 96-well plate. After that, shaken gently and stood at room temperature for 30 min, the optical density (OD) 517 nm in each well were determined by a microplate reader. Triplicates of each sample were run, and the mean values were calculated. Ascorbic acid was chosen as positive control. The percentage inhibition (%) for each sample was calculated by the following formula: (1) Inhibition %=1−Abssamples−Abscontrol/Absblank ×100%.
DPPH solution was replaced by a methanol solution, which was used as control, and samples were replaced by the methanol solution as the black. All the results were expressed as means ± standard deviation (SD).
The antioxidant and α-glucosidase inhibitory activities of each isolated compound at concentrations ranging from 15.625 to 500 μM (DPPH) and from 125 to 2000 μM (α-glucosidase inhibitory), respectively, were determined using the methods described in Section 2.3.
Background: DPPH is a stable violet radical that fades when it is reduced.

The target of test [2] is α-Glucosidase from Baker's yeast. The experiment in a line: α-Glucosidase inhibitory assay (p-NPG substrate, 96-well plate). It is filed as biochemical. As to conditions: isolated compounds; for IC50: test concentrations 125 to 2000 μM, mean ± SD. The procedure: The α-glucosidase inhibitory assay was performed on a 96-well plate by using a microplate reader according to the published method with minor modifications. […] […] After 5 min incubation at 37°C, 20 μL of 4-pNPG (p-nitrophenyl-α-D-glucopyranoside) (2.5 mM) was added and incubated for 15 min; then, 80 μL of Na2CO3 (0.2 M) was added to stop the reaction. The optical density (OD) values were determined using a microplate reader at 405 nm. Triplicates of each sample were run, and the mean values were calculated. […] The IC50 was calculated by using SPSS software.

The target of the next test is α-glucosidase. The experiment in a line: Inhibitory kinetic analysis (Lineweaver-Burk and Dixon plots). It is filed as biochemical, Baker's yeast. As to conditions: substrate 0.8-5.0 mM, enzyme 1.3 U/mL; for Ki: determined by Dixon plots; for α-Glucosidase inhibitory Inhibition mode: determined by Lineweaver-Burk plots. On the procedure:
The kinetic mechanisms of active compounds 1 and 2 towards α-glucosidase were determined by the graphical views of Dixon and Lineweaver-Burk plots. The concentration ranges for the substrates were 0.8-5.0 mM. The concentration of the enzyme was kept constant at 1.3 U/mL. Lineweaver-Burk plots were established to evaluate the type of inhibition. Dixon plots were used to calculate inhibitory constant (Ki) values of the tested compounds. Each kinetic analysis was implemented in triplicate from which mean Ki values.

Each structure is given as a SMILES string. Marks after values point to notes of the source that are not given here. A value given as a limit tells only on which side of the number the result lay.

Broadly, the IC50 is the concentration that gives 50% inhibition. A higher IC50 goes with lower potency. `O=C(O)/C=C/c1ccc(O)c(O)c1` [Compound 12, Caffeic acid] yielded an IC50 in test [1] of 36.91 ± 0.3 µM.

`O=C(O)c1cc(O)c(O)c(O)c1` [Compound 6, Gallic acid]: the results for the IC50 in test [2] and in test [1] were 313 ± 3.71 µM and 37.8 ± 2.52 µM, respectively. `CCOC(=O)c1cc(O)c(O)c(O)c1` [Compound 10, Ethyl gallate]: in test [2], the “α-glucosidase inhibitory activity (in words)” value was “no inhibitory activity”. In test [1], this compound came in with an IC50 of 38 ± 1.94 µM. On to `COc1cc(/C=C/C(=O)O)ccc1O` [Compound 11, Ferulic acid], for which 95 ± 2.41 µM corresponded to half-maximal inhibition in test [1] (IC50). Regarding `O=C1O[C@H]([C@@H](O)CO)C(O)=C1O` [Ascorbic acid, reference compound], the “DPPH assay IC50” value in test [1] (extract and fractions, test concentrations 62.5 to 1000 μg/mL, n = 3) was 9.37 ± 0.84^e μg/mL. In general, Ki refers to a dissociation constant, usually derived from enzyme kinetics or from competition with a known ligand. High values mean weaker binding, low ones tighter binding. In test [1], `O=C(OC[C@H]1O[C@@H](OC(=O)c2cc(O)c(O)c(O)c2)[C@H](OC(=O)c2cc(O)c(O)c(O)c2)[C@@H](OC(=O)c2cc(O)c(O)c(O)c2)[C@@H]1OC(=O)c1cc(O)c(O)c(O)c1)c1cc(O)c(O)c(O)c1` [Compound 1, 1,2,3,4,6-Penta-O-galloyl-β-D-glucoside] displayed a half-maximal inhibitory concentration (IC50) of 2.93 ± 1.06 µM. Further, on α-glucosidase, affinity was put at a Ki of 0.73295 ± 0.00022 µM and the “α-Glucosidase inhibitory Inhibition mode” value was “Noncompetitive”.

Take `O=C(OCC1OC(OC(=O)c2cc(O)c(O)c(O)c2)C(OC(=O)c2cc(O)c(O)c(O)c2)C(OC(=O)c2cc(O)c(O)c(O)c2)C1OC(=O)c1cc(O)c(O)c(O)c1)c1cc(O)c(O)c(O)c1` [Compound 2, 1,2,3,4,6-Penta-O-galloyl-α-D-glucoside]: the IC50 in test [1] stood at 22.3 ± 0.74 µM. Besides, on α-glucosidase, the affinity, expressed as Ki, was 0.09837 ± 0.00031 µM and the “α-Glucosidase inhibitory Inhibition mode” value is given as “Competitive”.

`O=C(O[C@@H]1O[C@H](CO)[C@@H](O)[C@H](O)[C@H]1O)c1cc(O)c(O)c(O)c1` [Compound 4, 1-O-(3,4,5-Trihydroxybenzoyl)-β-D-glucoside] returned an IC50 in test [1] of 52.8 ± 0.93 µM. On to `Oc1cc(O)c2c(c1)O[C@H](c1ccc(O)c(O)c1)[C@H](O)C2` [Compound 16, Epicatechin], for which the IC50 in test [1] worked out at 40.1 ± 0.82 µM. Regarding `O=C(OC[C@H]1O[C@@H](OC(=O)c2cc(O)c(O)c(O)c2)[C@H](OC(=O)c2cc(O)c(O)c(O)c2)[C@@H](OC(=O)c2cc(O)c(O)c(O)c2)[C@@H]1O)c1cc(O)c(O)c(O)c1` [Compound 3, 1,2,3,6-Tetra-O-galloyl-β-D-glucoside], the IC50 is 243.3 ± 1.43 µM in test [2] and 23.7 ± 0.52 µM in test [1]. Regarding `O=c1c(O)c(-c2ccc(O)c(O)c2)oc2cc(O)cc(O)c12` [Compound 13, Quercetin], the IC50 in test [2] came out at 138 ± 7.07 µM; in test [1], 60 ± 0.82 µM.

As for `COC(=O)c1cc(O)c(O)c(O)c1` [Compound 5, Methyl galate], the “α-glucosidase inhibitory activity (in words)” value in test [2] is given as “no inhibitory activity”. Besides, the IC50 in test [1] worked out at 32.3 ± 0.48 µM. Turning to `O=C(OCC(O)CO)c1cc(O)c(O)c(O)c1` (stereo not shown) [Compound 9, 1-Glycerol gallate], the “α-glucosidase inhibitory activity (in words)” value in test [2] is reported as “no inhibitory activity”. Besides, the IC50 in test [1] was more than 500 µM.

On to `O=C(O)c1ccc(O)c(O)c1` [Compound 7, 3,4-Dihydroxybenzoic acid], for which the IC50 came out at 425 ± 31.5 µM in test [2] and 38.2 ± 1.03 µM in test [1].
